Series [1] deals with Jurkat human acute T-cell leukaemia. The experiment in a line: MTT cell viability assay, Jurkat. Format: cell-based. To be noted: MTT test, 72 h of action, read-out: IC50, Tumour Cell Lines, Jurkat Human Acute T-Cell Leukaemia. As for the experimental part: (§1) The MTT cell viability assay was performed according to a previously reported protocol. Briefly, adherent cells were seeded at a density of 5000 cells per 100 µL, and suspension cells at 25,000 cells per 100 µL, in 96-well plates and incubated overnight. Subsequently, test compounds were added in 100 µL of culture medium, followed by incubation for 72 h. After treatment, 20 µL of MTT solution (5 mg/mL, Sigma-Aldrich, Burlington, MA, USA) was added to each well. The resulting formazan crystals were dissolved in DMSO (Sigma-Aldrich, Burlington, MA, USA), and absorbance was recorded using a BioTek ELx800 Absorbance Reader (BioTek Instruments, Inc., Vinooski, VT, USA). IC50 values were calculated by nonlinear regression analysis using GraphPad Prism (version 9.1.1, GraphPad Software, Boston, MA, USA). Experiments were conducted in triplicate. Human leukemia Jurkat T-cells, human glioblastoma U251 cells were kindly provided by Collection at the Institute of Molecular Biology and Genetics, National Academy of Sciences of Ukraine (Kyiv, Ukraine). Murine macrophages of J774.2 line were a generous gift from Prof. Sir John Vane (William Harvey Research Institute, London, UK) provided via Prof. Janusz Marcinkiewicz (Jagiellonian University Medical College, Krakow, Poland). Human colorectal adenocarcinoma cell line HT-29 was kindly provided by Prof. Anna Bielawska (Department of Biotechnology, Faculty of Pharmacy, Medical University of Bialystok, Poland). Murine BALB/3T3 fibroblasts was obtained from the Cell Collection of the R.E. Kavetsky Institute of Experimental Pathology, Oncology and Radiobiology (Kyiv, Ukraine).
Background: Formazan colour is commonly taken as a measure of viable cells.

Series [2] relates to U251 human malignant glioblastoma. The series is described as follows: MTT cell viability assay, U251. Format: cell-based. As to conditions: U-251, MTT test, 72 h of action, read-out: IC50, Tumour Cell Lines, U251 Human Malignant Glioblastoma. As for the experimental part: as §1
Series [3] deals with HT-29 human colorectal carcinoma. The series is described as follows: MTT cell viability assay, HT-29. Format: cell-based. As to conditions: MTT test, 72 h of action, read-out: IC50, Tumour Cell Lines, HT-29 Human Colorectal Carcinoma. As for the experimental part: as §1
A further series deals with Balb-3T3 mice fibroblast. The experiment in a line: MTT cell viability assay, Balb-3T3. As to conditions: Mus musculus, MTT test, 72 h of action, read-out: IC50, Pseudo-Normal Cell Lines, Balb-3T3 Mice Fibroblast. Format: cell-based. The method, then:
as §1

The subject of series [4] is J744.2 mice macrophage-like cells. The series is described as follows: MTT cell viability assay, J744.2. Format: cell-based. To be noted: Mus musculus; MTT test, 72 h of action; read-out: IC50, Pseudo-Normal Cell Lines, J744.2 Mice Macrophage-Like Cells. The method, then: as §1
A further series relates to salmon sperm DNA. The experiment in a line: DNA intercalation assay (methyl green displacement method). Format: binding. To be noted: 1 and 10 μM; for percentage of methyl green dye replaced from its complex with DNA: range over both doses; for affinity for DNA: methyl green displacement, in words. As for the experimental part: To investigate the potential mechanisms of cell death induced by the studied derivative, we evaluated apoptosis using the fluorescence microscopy of cells stained with Hoechst-33342 and Ethidium Bromide (EtBr), as well as spectroscopic and DNA/methyl green displacement assays. Methyl green is a cationic dye that binds preferentially to the phosphate backbone of DNA (primarily in the major groove). If a compound (an intercalator or groove-binding agent) is added, it can compete with methyl green for binding to DNA. The higher the percentage of substituted methyl green, the stronger the compound interacts with DNA. Intercalation is the key feature of clinically used antitumor drugs, e.g., doxorubicin (DOX). DOX displaced 41.62–45.52% of methyl green from its complex with DNA (Figure 10). Another intercalator, EtBr, replaced 42.12–47.35% of methyl green from its complex with DNA.
A 485 μL aliquot of salmon sperm DNA (50 μg/mL, Sigma-Aldrich, Burlington, MA, USA) was incubated with 15 μL of methyl green solution (1 mg/mL, Sigma-Aldrich, Burlington, MA, USA) at 37 °C for 1 h. Subsequently, 500 μL of the test compounds, doxorubicin, or ethidium bromide (each at final concentrations of 1 μM and 10 μM) was added to the preformed methyl green–DNA complex. The samples were further incubated at 37 °C for 2 h in the dark. Absorbance was then recorded at 630 nm. GraphPad Prism (version 9.1.1, GraphPad Software, Boston, MA, USA) was used for the results analysis. Experiments were conducted in triplicate. Doxorubicin and ethidium bromide were purchased from Sigma-Aldrich, USA.

A further series relates to Jurkat cells. The experiment in a line: Fluorescent microscopy of Jurkat cells (Hoechst 33342/EtBr staining). To be noted: 0.5 µM, 24 h. Format: cell-based, human. As for the experimental part:
Jurkat cells were seeded in 24-well plates at a density of 250,000 cells/mL and incubated overnight prior to treatment. Cells were then treated for 24 h with compounds 4, 7, and 8 (0.5 µM) or doxorubicin (0.5 µM) as a positive control. Following treatment, cells were stained with Hoechst 33342 (0.2–0.5 µg/mL; Sigma-Aldrich, USA) and ethidium bromide (EtBr, 1 µg/mL). Fluorescence imaging was performed using a LIM-400 microscope (LABEX INSTRUMENT LIMITED, Ningbo, China) equipped with an MTR3CCD camera. Images were captured and analysed using ImageView software (version 4.11.21522.20221011).

The test system of series [5] is HeLa, MDA-MB-231, and MCF-7. More on the design: method as in PMID 32171988. As to conditions: in words; cited from earlier work.
Another series relates to cervical cancer HeLa. More on the design: method as in PMID 28669347. As to conditions: cited from earlier work.
The subject of another series is glioblastoma U87. More on the design: method as in PMID 28669347. As to conditions: cited from earlier work.
The test system of series [6] is human lung cancer cells (A549). More on the design: method as in PMID 15464834, doi:10.1177/1934578X0700200419. As to conditions: read-out: IC50 in cultured human lung cancer cells (A549); cited from earlier work.
Series [7] concerns Staphylococcus aureus 209P. More on the design: method as in PMID 37298957. To be noted: in words; cited from earlier work.
The test system of a further series is Mucor indicus. More on the design: method as in PMID 30790326. To be noted: cited from earlier work.
In another series the test system is P450 CYP1B1 isoform. More on the design: method as in PMID 28632937. As to conditions: read-out: IC50 against the P450 CYP1B1 isoform; cited from earlier work.
Series [8] deals with ovarian cancer 2D culture. More on the design: method as in PMID 27585955. To be noted: 2D culture and liposomal drug delivery system; cited from earlier work.
Another series deals with SK-OV-3 (3D model). More on the design: method as in PMID 27585955. As to conditions: 3D spheroid model; cited from earlier work.
The subject of series [9] is patient P3 cell lines (3D model, patient-derived ovarian cancer). More on the design: method as in PMID 27585955. As to conditions: 3D spheroid model; cited from earlier work.

The IC50 is the concentration needed to halve the response being measured.

In brackets after ≈: the same amount, converted by molar mass.

In the case of `COc1cc(OC)c(OC)cc1/C=C/c1ccc(OC)c(OC)c1` [Compound 10, 2,3’,4,4’,5-pentamethoxy-trans-stilbene], the 50% inhibitory concentration (IC50) in series [1] is 8.95 µM; in series [2], > 100 µM; in [3] it was > 100 µM; with Balb-3T3 mice fibroblast, > 100 µM; in series [4], 91.6 µM.
In the case of `COc1cccc2c1C(=O)c1c(O)c3c(c(O)c1C2=O)C[C@@](O)(C(=O)CO)C[C@@H]3O[C@H]1C[C@H](N)[C@H](O)[C@H](C)O1` [DOX, doxorubicin, reference compound], the “percentage of methyl green dye replaced from its complex with DNA” value (“percentage of methyl green dye replaced” for short) in the series with salmon sperm DNA is on record as 41.62–45.52%. Further, the “effect on cell morphology and viability (apoptosis, chromatin condensation, DNA fragmentation)” value (“effect on cell morphology and viability” for short) in the series with Jurkat cells is “elicited a similar morphological disruption and chromatin fragmentation as compound 8 did”.
With `CC[n+]1c(-c2ccccc2)c2cc(N)ccc2c2ccc(N)cc21` [EtBr, Ethidium Bromide, reference compound], in the series on salmon sperm DNA, the “percentage of methyl green dye replaced” value was 42.12–47.35%.
Consider `COc1cc(/C=C/c2cc(Br)c(OC)c(Br)c2)cc(OC)c1OC` [Compound 3, 3,5-dibromo-3′,4′,5′,4-tetramethoxy-trans-stilbene], for which the IC50 in series [1] is > 100 µM; in series [2], > 100 µM; in [3] it was > 100 µM; in the series on Balb-3T3 mice fibroblast, 76.4 µM; in series [4], 20.4 µM.
Regarding `COc1cc(/C=C/c2cc(Br)cc(Br)c2)cc(OC)c1OC` [Compound 6, 3,5-dibromo-3′,4′,5′-trimethoxy-trans-stilbene], the IC50 in series [1] was 65.3 µM; in series [2] it was > 100 µM; in series [3] it was > 100 µM; in the series on Balb-3T3 mice fibroblast, 3.75 µM; in [4], 9.97 µM.
`CCCCCCCCCCCCCCCC[N+](C)(CCCCCCCCCCCCCCCC)CNC(=O)c1cc(OC)c(OC)c(OC)c1/C=C/c1cc(OC)c(OC)c(OC)c1` [VII, quaternary amine derivative chloride of 4,5,6,3′,4′,5′-hexamethoxy-trans-stilbene]: the “antitumor activity against cancer lines compared with resveratrol and tamoxifen” value in series [5] is recorded as “higher antitumor activity”.
Consider `COc1ccc(/C=C/c2ccc([N+](=O)[O-])cc2[N+](=O)[O-])c(O)c1` [VIII, 2-hydroxy-4-methoxy-2′,4′-ditro-trans-stilbene], for which the values for the half-maximal inhibitory concentration (IC50) in the series with cervical cancer HeLa and with glioblastoma U87 were 6.97 µM and 55.8 µM, respectively.
In the case of `COc1ccc(/C=C/c2cc(OC)c(OC)c(OC)c2)cc1` [Compound 7, 3,4,5,4′-tetramethoxy-trans-stilbene], the IC50 in series [1] is 0.65 µM; in [2] it was > 100 µM; in series [3] it was > 100 µM; with Balb-3T3 mice fibroblast, 2.79 µM; in series [4], 0.83 µM. In the series with salmon sperm DNA, the “percentage of methyl green dye replaced” value is listed as 1.87–5.98%. Moreover, the “affinity for DNA” value with salmon sperm DNA is recorded as “low affinity for DNA”. Moreover, the “effect on cell morphology and viability” value in the series with Jurkat cells is “markedly reduced viable cell numbers and enhanced nuclear fragmentation”.
Regarding `COc1ccc(/C=C(\C#N)c2cc(OC)c(OC)c(OC)c2)cc1OC` [Z isomer of compound XII, reference compound], in series [6], the IC50 was 0.03 µM.
Regarding `COc1cc(Br)c(/C=C/c2cc(OC)c(OC)c(OC)c2)cc1OC` [Compound 5, 2-bromo-3′,4′,5′,4,5-pentamethoxy-trans-stilbene], the IC50 was 68.5 µM in series [1]; > 100 µM in series [2]; > 100 µM in series [3]; 51.7 µM with Balb-3T3 mice fibroblast; 71.1 µM in series [4].
Turning to `COc1ccc(/C=C/c2cc(OC)c(OC)c(OC)c2)cc1OC` [Compound 8, 3,3′,4,4’,5-pentamethoxy-trans-stilbene], the IC50 in [1] was 0.82 µM; in [2] it was > 100 µM; in series [3] it was > 100 µM; in the series on Balb-3T3 mice fibroblast, 5.04 µM; in series [4], 3.83 µM. For the same compound, the “percentage of methyl green dye replaced” value with salmon sperm DNA was 1.87–5.98%. In the series on salmon sperm DNA, the “affinity for DNA” value is recorded as “low affinity for DNA”. In addition, in the series on Jurkat cells, the “effect on cell morphology and viability” value is on record as “induced moderate apoptosis”.
As to `Oc1ccccc1/C=C/c1cc[n+](Cc2ccccc2Br)cc1.[Br-]` [IX, 1-(2-bromobenzyl)-4-[(E)-2-(2-hydroxyphenyl)ethenyl]pyridinium bromide], the “activity against Staphylococcus aureus 209P” value in series [7] is listed as “promising activity”.
Take `COc1cc(/C=C/c2ccc(Br)cc2)cc(OC)c1OC` [Compound 1, 4-bromo-3′,4′,5′-trimethoxy-trans-stilbene]: the IC50 in series [1] is 2.26 µM; in series [2], > 100 µM; in series [3], > 100 µM; in the series with Balb-3T3 mice fibroblast it was 3.2 µM; in series [4], 6.63 µM; in series [6] it was 6.36 µM. For the same compound, in the series on Mucor indicus, the “MIC toward Mucor indicus” value is 25 µg/mL (≈ 71.6 µM).
With `COc1cc(/C=C/c2cc(OC)c(OC)c(OC)c2)cc(Br)c1OC` [Compound 2, 3-bromo-3′,4′,5′,4,5-pentamethoxy-trans-stilbene], the IC50 was > 100 µM in series [1]; > 100 µM in [2]; > 100 µM in series [3]; 72.8 µM with Balb-3T3 mice fibroblast; 7.93 µM in series [4].
On to `CSc1ccc(/C=C/c2ccccc2SC)cc1` [VI, 2,4′-dimethylthio-trans-stilbene], for which the concentration for half-maximal inhibition (IC50) in the series with P450 CYP1B1 isoform was 0.026 µM.
“3-hydroxy-3,4,5,4′-tetramethoxy-trans-stilbene [DMU-214]”: the IC50 is 0.022 µM in [8], 2.9 to 14.1 µM with SK-OV-3 (3D model) and 0.5 to 22.9 µM in series [9].
